From US10598667B2, “Functional illumination in living cells” (The Regents of the University of California, priority 2013, dated 2020)
“Also recorded” adds a separate entry of the source. Read-outs that look alike come from different tables or passages of the source. Where no end group is shown, it is not given here. [ ]: non-standard residue; d: D form. pS = N[C@@H](COP(=O)(O)O)C(=O)O

How the values were obtained:
[1] = Sequential screening of PDMS affixed OBOC bead array with three dyes; assay type: binding; conditions: 100 μM dye in PBS, three dyes incubated sequentially on the same bead array
Protocol: Silicon Elastomer Base was mixed completely with Silicone Elastomer Curing Agent at ratio 10:1 in volume and the solution was kept in vacuum container for 15 to 20 minutes to eliminate the gas bubbles formed during the mixing process. After the removal of all residual bubbles, approximately 0.5-1 mL of PDMS solution was added into the bottom of a 60 mm culture dish. The dish was then spun on a single wafer spin processor (Laurell Technologies Corporation®, model WS-6505-6NPP/Lite) to evenly distribute the solution over the plates, at a speed of 4000 rpm for 30 s. A 5 μm layer of PDMS was formed on the bottom of dish and was cured at 80° C. for 5 min or at room temperature for 24 hrs to allow for beads immobilization. Knowing that the PDMS coating was about 5 μm thick and the radius of bead was around 45 μm, the percentage of free bead surface area was estimated by the formula of [1-2πrh/4πr^2]×100% (h=thickness of PDMS layer; r=radius of bead) to be approximately 95%. The library beads resuspended in 70% ethanol solution were first randomly placed on the surface of a glass plate that was 10% smaller than the dish used in the experiment. After the ethanol evaporated, a syringe needle was used to adjust the dry beads to evenly redistribute beads on the glass surface. Then the dish was inverted and the PDMS layer was pressed down onto the glass plate with beads. The library beads were embedded partly inside the PDMS layer.
(§1) Dye solutions were prepared in PBS to a 100 μM final concentration and 5 mL of each dye solution were added into the 60 mm dish with beads. Three dyes were tested sequentially. The dish was kept swirling at 60 rpm on the rotator. The dye binding was monitored for 90 minutes, and then the dye solution was removed from the dishes and PBS was added to rinse the beads on the bottom to remove the color dye. The PBS solution was changed every 30 min and the dish was always swirled as above. The beads color change was also observed and recorded at certain time interval during the whole wash process to collect data of color dissociation. Before adding the next dye solution, beads were washed with 70% ethanol to completely remove residual dye and were rinsed with PBS solution three times afterwards.
(§2) A representative positive bead for each color was selected for the color binding and dissociation study. A series of images were taken at different time points during the binding and washing process. From the images taken, regions of interest (ROI) with the same size were picked up from the color beads and colorless control beads. The value from the control bead was subtracted from the color bead to get quantitated color value for each single color bead. The measure of the color intensity for each color dye was performed using the Kodak Image Station 2000MM.
The PDMS affixed bead array was incubated with three different dyes sequentially. […] Eleven beads were selected for further analysis based on their characteristic binding profiles (FIG. 2). […] The amino acid sequences of the peptides bound to the beads were determined (Table 1).

[2] = Real time association and dissociation of dye to bead (color intensity); assay type: binding
Protocol: as §1, §2
(§3) With the PDMS affixed bead method, it is possible to dynamically observe the peptide-dye interaction on each individual immobilized bead in real time. To further characterize the binding profile for each of the target/sequence interactions, beads #1, #4 and #10 were selected for binding and dissociation study with each respective target dye, by measuring the intensity of the resulting color accumulation on the bead surface at different time points. The values obtained for color intensity across progressing time points were plotted and the profiles for the three dye/bead interactions were compared. The association and dissociation rate of each organic dye to its respective binding peptide was evaluated. […]

[3] = as above; assay type: binding; remark: listed apart in the source
Protocol: as §1, §2, §3

[4] = Histone H2 tail OBOC library screening with DMHBI; assay type: binding; conditions: library peptide fused to N-terminal H2
Protocol: An OBOC combinatorial library was prepared for the development of GESIs for probing histone H2 tail. The library design is shown in FIG. 20C, wherein X represents all 20 eukaryotic amino acids except for cysteine; all possible post-translational modification states of Ser-1 and Lys-5 are incorporated; and additional Xs at the N-terminus of the histone tail will provide necessary capturing residues for fluorescent dyes.

[5] = Fluorescence titration of peptide in solution with MG, 2 mM Ca2+, 650 nm; assay type: binding
Protocol: (§4) Two peptides that can activate MG with or without calcium sensitivity were selected for further characterization. A solution form of the two peptides were synthesized and titrated with MG in the presence of 2 mM Ca^2+. Fluorescent signal at 650 nm was measured. […] Computational modeling confirmed stably folded structure of peptide 12 upon MG binding, preventing intramolecular motions of MG (FIG. 8B, FIG. 10A, B). […] The immobilized peptides on TentaGel beads were then titrated with an increasing amount of MG in the presence and absence of 2 mM Ca^2+. Fluorescent emission at 650 nm by each individual bead was measured. […] Computational modeling further confirmed that stably folded structure of peptide 2 only forms upon calcium binding (FIG. 11B).

[6] = Titration of immobilized peptides on TentaGel beads with MG in presence and absence of 2 mM Ca2+; assay type: binding; conditions: presence vs absence of 2 mM Ca2+, peptide on bead
Protocol: as §4

HEK293 cells = test: Dual-color confocal imaging of Cerulean-linker-peptide fusion proteins with MG and acetylcholine; assay type: cell-based
Text: To evaluate the utility of lead peptides in mammalian cells, individual peptide tags were fused to the C-terminus of a cyan fluorescence protein (Cerulean 3) anchored on the plasma membrane. An amino acid linker (GGSGSGGS: SEQ ID NO:33) was placed between C-terminus of Cerulean and the peptide to increase the solubility and stability of the recombinant fusion proteins. Goals for the design of fusion proteins are two-folds. First, the labeling ability of peptides can be readily detected by co-localization of both cyan and infrared fluorescence. Second, the calcium sensing ability of peptide can be tested by taking advantage of endogenous acetylcholine (Ach) receptors; Ach stimulus leads to transient calcium influx in cytosol, which may lead to increased MG fluorescence. Given the limited membrane permeability of MG, a relative high concentration of MG (5×10^−7 M) was used for the imaging assay. 48 hrs post-transfection, time-lapse, dual-color confocal fluorescence microscopy images were taken upon MG incubation, followed by Ach addition. […] The fluorescence intensity reached plateau within seconds and remains stable during the 10 mins period of imaging window. In contrast, no apparent infrared fluorescence was observed when membrane-anchored Cerulean control (without grafted peptide) was expressed upon MG addition (FIG. 15A). […]

[7] = MG binding of peptide ligands from screening and their derivatives; set-up: key to MG binding: −: no binding; +: weak binding; ++: mild binding; +++: strong binding; ++++: very strong binding; conditions: 11 hour incubation with 5 μM MG in PBS buffer (pH 7.4)
[8] = Fluorescent activation of MG by peptide compared with LTA2 and LTA10; assay type: binding; conditions: preliminary data
Text: We expect to generate a toolbox of functional illuminant peptides that can be used in a broad range of biological applications. Translating the peptides identified in aim 1 to highly sensitive and specific functional illuminants in living cells, however, is more challenging. In this proposal, we will characterize the utility of these peptides in live cells with an emphasis on phosphorylation (Aim 2) and histone epigenetics (Aim 3). As indicated above, we plan to design and synthesize a series of dyes candidates for GESI development. We are cognizant that many organic dyes bind non-specifically to many proteins, but usually at rather high concentration (mM). […] It is also important to realize that not all binding events will activate fluorescence. […] This works in our favor as not all non-specific binding (if there is any) will lead to activation of the dyes. One concern that the previous reviewers have was the large number of Trp in our initial leads (e.g. LTA2 and LTA10). As shown in the preliminary data, many strong activators for MG have low number of Trp. For example, fluorescent activation of MG by LRRAS(P)LFYGMWYPST (SEQ ID NO:227), with only 1 Trp, is 4-5× brighter than that of LTA2 and LTA10.

Q: What does the source list for “CHTHILC (not fully specified (bridges); cysteine pairing not given here; also: bead-bound) [Bead #4]”?
A: Dye binding ([1]; listed as # 4): Bromocresol; Dye binding ([1]; listed as #4): only bind to bromocresol purple; also recorded: bind only to bromocresol purple; Time to maximum color binding ([2]; bead incubated with bromocresol purple): around 75 minutes; Time until color disappeared (dissociation) ([2]; washing): ≤ 72 h

Q: What does the source list for “CKWILPC (not fully specified (bridges); cysteine pairing not given here; also: bead-bound) [Bead #10]”?
A: Dye binding ([1]; listed as #10): bind to both indigo carmine and bromocresol purple; Time until colorization was seen ([3]; bead incubated with indigo carmine): within five minutes; Time until color completely gone (dissociation) ([3]; washing with PBS): 20 min; Binding and dissociation rates compared with indigo carmine ([2]; bromocresol purple): much slower

Q: With “CNSPDIC (not fully specified (bridges); cysteine pairing not given here; also: bead-bound) [Bead #1]” as the substance, how does the Dye binding ([1]; listed as # 1) read?
A: Malachite green

Q: And the Dye binding ([1]; listed as #1)?
A: only bind to malachite green; also recorded: bind only to malachite green

Q: And the “Time after which color had not completely diminished (dissociation)” value ([3]; after washing)?
A: > 72 h

Q: With DPSWPNS(P)GRGK(Ac) (DPSWPN[pS]GRGK(Ac)) as the substance, how does the DMHBI activation [4] read?
A: DMHBI activating

Q: Which “Binding characteristics in solution studies” value [5] does the source give for DWWDWGNHGYTE [Peptide 12] here?
A: strong binding characteristics

Q: And the Kd ([5]; binding to MG, read-out: binding affinity)?
A: 0.41 nM

Q: What about the Kd ([5]; peptide in solution, 2 mM Ca2+, one-site specific binding, read-out: Kd) of the same substance?
A: ~0.41 nM

Q: With “DWWWDGFERLEE (synthetic genetically encoded small illuminant (GESI) malachite green (MG) binding Peptide 2)” as the substance, how does the “Binding characteristics in solution studies” value [5] read?
A: strong binding characteristics

Q: And the “Increase of MG binding affinity by calcium” value [6]?
A: about 10 fold

Q: What about the “Increase of MG binding affinity by calcium” value ([6]; listed as peptide 2) of the same substance?
A: 10 fold

Q: What about the “Sensitivity to calcium upon acetylcholine stimulation” value (HEK293 cells) of the same substance?
A: showed sensitivity to calcium

Q: What about the “Increase of MG fluorescence intensity upon Ach addition” value (HEK293 cells; living cells) of the same substance?
A: 4 fold

Q: And the MG binding [7]?
A: ++

Q: For GLFDQES(P)GRGK (GLFDQE[pS]GRGK), which DMHBI activation [4] is on record?
A: DMHBI activating

Q: Which “Fluorescent activation of MG, brightness relative to LTA2 and LTA10” value [8] does the source give for LRRAS(P)LFYGMWYPST (LRRA[pS]LFYGMWYPST) here?
A: 4-5 ×

Q: With TRPSMWS(P)GRGK(Ac) (TRPSMW[pS]GRGK(Ac)) as the substance, how does the DMHBI activation [4] read?
A: DMHBI activating

Q: With VWDGIRS(P)GRGK(Ac) (VWDGIR[pS]GRGK(Ac)) as the substance, how does the DMHBI activation [4] read?
A: DMHBI activating
